Values of other authors, collected in patent US20130324521A1, “IMPLANT FOR TREATING OR PREVENTING AN ANEURYSM” (priority 2010, published 2013).

Question: Which “tolerability of oral administration” value (oral administration) does the source give for `Cn1cncc1[C@@](N)(c1ccc(Cl)cc1)c1ccc2c(c1)c(-c1cccc(Cl)c1)cc(=O)n2C` [R11577, Tipifarnib] here?
Answer: tolerated well

Question: And the toxicity (use as accredited therapeutic agent in oncological therapy)?
Answer: low toxicity
